In patent US12377175B2, “Trifunctional constructs with tunable pharmacokinetics useful in imaging and anti-tumor therapies” (Cornell University, priority 2016, dated 2025):

Tested on: LNCaP xenograft tumor-bearing mice
Experiment: Biodistribution of 225Ac-macropa-RPS-070 in LNCaP xenograft mice
Type: in vivo, mouse
Details: 4-96 h; no accumulation of 225Ac in liver, spleen, bone
Method: Cell Culture. […] Cell culture supplies were from Invitrogen unless otherwise noted.
Inoculation of Mice with Xenografts. All animal studies were approved by the Institutional Animal Care and Use Committee of Weill Cornell Medicine and were undertaken in accordance with the guidelines set forth by the USPHS Policy on Humane Care and Use of Laboratory Animals. Animals were housed under standard conditions in approved facilities with 12 h light/dark cycles. Food and water was provided ad libitum throughout the course of the studies. Hairless male nu/nu mice were purchased from the Jackson Laboratory. For inoculation in mice, LNCaP cells were suspended at 4×10^7 cells/mL in a 1:1 mixture of PBS:Matrigel (BD Biosciences). Each mouse was injected in the left flank with 0.25 mL of the cell suspension. Biodistributions were conducted when tumors were in the range 100-400 mm^3.
Biodistribution of […] in LNCaP xenograft mice. Fifteen LNCaP xenograft tumor-bearing mice (5 per time point) were injected intravenously with a bolus injection of 85-95 kBq and 100 ng ([…]) of each ligand. The mice were sacrificed by cervical dislocation at 4, 24 and 96 h post injection. A blood sample was removed, and a full biodistribution study was conducted on the following organs (with contents): heart, lungs, liver, small intestine, large intestine, stomach, spleen, pancreas, kidneys, muscle, bone, and tumor. Tissues were weighed and counted on a 2470 Wizard Automatic Gamma Counter (Perkin Elmer). 1% ID/mL samples were counted prior to and following each set of tissue samples to enable decay correction to be undertaken. Counts were corrected for decay and for activity injected, and tissue uptake was expressed as percent injected dose per gram (% ID/g). Standard error measurement was calculated for each data point.

In the case of `O=C(O)CC[C@H](NC(=O)N[C@@H](CCCCNC(=O)Nc1cccc(-c2cn(CCOCCOCCOCCOCCOCCOCCC(=O)N[C@@H](CCCCNC(=S)Nc3cc(CN4CCOCCOCCN(Cc5cccc(C(=O)O)n5)CCOCCOCC4)nc(C(=O)O)c3)C(=O)N[C@@H](CCCCNC(=O)Cc3ccc(I)cc3)C(=O)O)nn2)c1)C(=O)O)C(=O)O` [macropa-RPS-070, (((S)-1-Carboxy-5-(3-(3-(1-((23S,26S)-26-carboxy-23-(4-(3-(2-carboxy-6-((16-((6-carboxypyridin-2-yl)methyl)-1,4,10,13-tetraoxa-7,16-diazacyclooctadecan-7-yl)methyl)pyridin-4-yl)thioureido)butyl)-33-(4-iodophenyl)-21,24,32-trioxo-3,6,9,12,15,18-hexaoxa-22,25,31-triazatritriacontyl)-1H-1,2,3-triazol-4-yl)phenyl)ureido)pentyl)carbamoyl)-L-glutamic acid], the “retention of 225Ac by the construct in vivo” value is reported as “stably retain”.
